# Test results as given in patent publication US20040063731A1, “Pharmaceutical formulation comprising pyrazolo[4,3-d]pyrimidines and endothelin receptor antagonists or thienopyrimidines and endothelin receptor antagonists” (priority 2001, published 2004).
# Structures can show the parent of a compound that is named as a salt.
row,Structure (SMILES),melting point
1,"COc1ccc(CNc2nc(CCC(=O)O)nc3sc4c(c23)CCCC4)cc1Cl [Example 2, 3-[4-(3-chloro-4-methoxybenzylamino)-5,6,7,8-tetrahydro-[1]-benzothieno[2,3-d)pyrimidin-2-yl)propionic acid]",229 °C
2,"COc1ccc(CNc2nc(CCC(=O)O)nc3sc4c(c23)CCCC4)cc1Cl (as salt: salt) [Example 2, 3-[4-(3-chloro-4-methoxybenzylamino)-5,6,7,8-tetrahydro-[1]-benzothieno[2,3-d)pyrimidin-2-yl)propionic acid]",135 °C
3,"COc1ccc(CNc2nc(-c3ccc(C(=O)O)cc3)nc3sc4ccccc4c23)cc1Cl (as salt: salt) [Example 3, 4-[4-(3-chloro-4-methoxybenzylamino)-[1]-benzothieno[2,3-d]-pyrimidin-2-yl]benzoic acid]",189 to 190 °C

# The next lines start with the values.
row,melting point,Structure (SMILES)
1,178 °C,"CCCc1nn(C)c2c(NCc3ccc(OC)c(Cl)c3)nc(CCC(=O)O)nc12 [Example 2, 3-[7-(3-chloro-4-methoxybenzylamino)-1-methyl-3-propyl-1H-pyrazolo-[4,3-d]pyrimidin-5-yl]propionic acid]"
2,139 °C,"CCCc1nn(C)c2c(NCc3ccc(OC)c(Cl)c3)nc(-c3ccc(C(=O)O)cc3)nc12 (as salt: salt) [Example 3, 4-[7-(3-chloro-4-methoxybenzylamino]-methyl-3-propyl-1H-pyrazolo-[4,3-d]pyrimidin-5-yl]benzoic acid]"
